Assay results: the RepoRT retention time repository (doi:10.1016/j.foodchem.2021.129757)

What was measured:
Conditions in all cases: stereoisomer not certain
[1] = RP, Agilent ZORBAX RRHD Eclipse Plus C18, 50 × 2.1 mm, 1.8 µm, 30 °C, 0.4 mL/min, estimated dead time 0.28 min; A: water + 0.1% formic acid, pH 3; B: acetonitrile + 0.1% formic acid, pH 3; gradient (min/%B) 0/1 5/10 8/25 9.1/99 10/99 12/99
[2] = RP, Agilent ZORBAX RRHD Eclipse Plus C18, 50 × 2.1 mm, 1.8 µm, 30 °C, 0.4 mL/min, estimated dead time 0.28 min; A: water + 0.1% formic acid, pH 3; B: acetonitrile + 0.1% formic acid, pH 3; gradient (min/%B) 0/1 5/10 8/25 9.1/99 10/99 12/1
[3] = RP, Agilent ZORBAX Eclipse XDB-C18, 100 × 2.1 mm, 1.8 µm, 50 °C, 0.4 mL/min, estimated dead time 0.55 min; A: water + 0.1% formic acid, pH 3; B: methanol + 0.1% formic acid, pH 3; gradient (min/%B) 0/2 10/100 14.5/100 14.51/2 16.5/2
[4] = RP, Waters ACQUITY UPLC BEH C18, 100 × 2.1 mm, 1.7 µm, 65 °C, 0.4 mL/min, estimated dead time 0.55 min; A: water + 0.1% formic acid, pH 3; B: 80% acetonitrile + 20% acetone + 0.1% formic acid, pH 3; gradient (min/%B) 0/0 5/100 5.5/0 6/0
[5] = RP, Agilent InfinityLab Poroshell 120 EC-C18, 100 × 3 mm, 2.7 µm, 25 °C, 0.4 mL/min, estimated dead time 1.1 min; A: water + 0.1% formic acid, pH 3; B: acetonitrile + 0.1% formic acid, pH 3; gradient (min/%B) 0/5 10/25 20/40 24/90 25/90 26/5 30/5

| LC retention time [1] [min] | LC retention time [2] [min] | LC retention time [3] [min] | LC retention time [4] [min] | LC retention time [5] [min] | Structure (SMILES) |
| --- | --- | --- | --- | --- | --- |
| 5.42 | 6.09 |  |  |  | O=C1CCC(Cc2ccc(OS(=O)(=O)O)c(O)c2)O1 (stereo not given) |
| 3.73 | 6.31 |  |  |  | CC(Oc1ccc(O)cc1)C(=O)O (single isomer, unassigned; (+)) [(+)-2-(4-Hydroxyphenoxy)propionic acid] |
| 4.65 |  |  |  |  | Oc1cc(O)c2c(c1)OC(c1ccc(O)c(O)c1)C(O)C2 (single isomer, unassigned; (+)) [(+)-Catechin] |
| 1.96 | 4 |  |  |  | COc1cccc(OS(=O)(=O)O)c1O [1-Methyl-pyrogallol-O-sulfate] |
| 1.12 | 2.89 |  |  |  | COc1c(O)cccc1OS(=O)(=O)O [2-Methyl-pyrogallol-O-sulfate] |
|  | 8.98 |  |  |  | COc1ccc(C(=O)O)c(O)c1 [2-hydroxy-4-methoxybenzoic acid] |
|  | 5.91 | 3.72 |  |  | O=Cc1cccc(O)c1 [3-Hydroxybenzaldehyde] |
| 4.67 | 5.69 | 3.55 |  |  | O=C(O)Cc1cccc(O)c1 [3-hydroxyphenylacetic acid] |
|  | 7.85 |  |  |  | COc1ccc(C2Oc3cc(O)cc(O)c3CC2O)cc1O (stereo not given) [4'-O-methylepicatechin] |
| 3.83 | 5.96 |  |  |  | Cc1ccc(OS(=O)(=O)O)c(O)c1 [4-Methylcatechol-1-O-sulfate] |
| 3.83 | 5.96 |  |  |  | Cc1ccc(O)c(OS(=O)(=O)O)c1 [4-Methylcatechol-2-O-sulfate] |
| 3.99 | 4.86 |  |  |  | O=C(O)C=Cc1ccc(O)c(OS(=O)(=O)O)c1 [Caffeic acid-3-O-sulfate] |
| 4.14 | 5.23 |  |  |  | O=C(O)C=Cc1ccc(O)c(OC2OC(C(=O)O)C(O)C(O)C2O)c1 (stereo not given) [Caffeic acid-3-glucuronide] |
| 5.06 | 6.39 |  |  |  | COc1ccc(CCC(=O)O)cc1OS(=O)(=O)O [Dihydro isoferulic acid-3-O-sulfate] |
| 5.15 | 5.64 |  |  |  | COc1cc(CCC(=O)O)ccc1OC1OC(C(=O)O)C(O)C(O)C1O (stereo not given) [Dihydroferulic acid-4-O-glucuronide] |
| 5.06 | 7.68 |  |  |  | COc1ccc(CCC(=O)O)cc1O [Dihydroisoferulic acid] |
|  |  |  | 2.88 | 17.4 | O=C1OCC(Cc2cccc(O)c2)C1Cc1cccc(O)c1 (stereo not given) [Enterolactone] |
|  |  |  | 2.1 | 9.6 | O=C(O)C1OC(Oc2cc(O)c3c(=O)c(-c4ccc(O)cc4)coc3c2)C(O)C(O)C1O (stereo not given) [Genistein 7-O-glucuronide] |
| 1.99 | 5.2 |  |  |  | COc1ccc(C(=O)O)cc1O [Isovanillic acid] |
| 0.774 | 1.56 |  |  |  | O=S(=O)(O)Oc1cccc(O)c1O [Pyrogallol-1-O-sulfate] |
| 8.38 | 7.84 |  |  |  | O=C(O)C1OC(Oc2cc(O)c3c(=O)c(O)c(-c4ccc(O)c(O)c4)oc3c2)C(O)C(O)C1O (stereo not given) [Quercetin-7-O-glucuronide] |
| 1.44 | 2.66 |  |  |  | Oc1cccc(O)c1 [Resorcinol] |
| 5.5 | 5.28 |  |  |  | O=C(O)C=Cc1ccc(OS(=O)(=O)O)c(O)c1 [caffeic acid-4-O-sulfate] |
| 3.78 | 5.25 |  |  |  | O=C(O)C=Cc1ccc(OS(=O)(=O)O)cc1 [p-Coumaric acid 4-O-sulfate] |
| 1.85 | 3.8 |  |  |  | O=C(O)C=Cc1ccc(OC2OC(C(=O)O)C(O)C(O)C2O)cc1 (stereo not given) [p-Coumaric acid-4-O-glucuronide] |

| Structure (SMILES) | LC retention time [1] [min] | LC retention time [2] [min] | LC retention time [3] [min] | LC retention time [4] [min] | LC retention time [5] [min] |
| --- | --- | --- | --- | --- | --- |
| O=C(O)Cc1ccccc1 [Phenylacetic acid] | 4.65 | 7.64 |  |  |  |
